Experimental findings from patent US11517598B2 (priority 2016, dated 2022) are described below.

The subject of this assay is cytokine, chemokine and IFN stimulated gene expression in 786-0 cells. Format: cell-based, human.

As for Sodium orthovanadate, the “CXCL9 mRNA up-regulation” value is on record as “more than 100,000 fold”; the “IFNβ mRNA up-regulation” value is “more than 10 fold”; the IFNγ expression result was “not up-regulated at any time-point post infection under any condition tested”; the “MX2 and IFITM1 mRNA” value is listed as “robustly downregulated as early as 8 h post-infection”. Further, the “expression of proinflammatory cytokines (CCL8, CCL3, IL6, TNF, IFNβ, CCL5) and type II IFN induced genes (CXCL9, CXCL10, CXCL11)” value was “increased expression of a number of proinflammatory cytokines”; the “genes typically induced by Type I IFN” value is given as “either unaffected or decreased”.
